Data set [1] is described as follows: Release of drugs from dialysis bag in pH 7.4 PBS buffer solution. The class given is physicochemical. Particulars: 37° C. The protocol: FIG. 3A and FIG. 3B show the release curves of ganetespib. FIG. 3C and FIG. 3D show the release curves of curcumin For free ganetespib, the dialysis bag stops release after 8 hours, and about 73% ganetespib is released. For ganetespib in the drug composition, the dialysis bag continues release until as long as 12 hours has elapsed, and about 80% ganetespib is released. As indicated by the arrows in FIG. 3B, CHC/GAN where ganetespib is encapsulated by CHC releases ganetespib more slowly and has higher content of ganetespib. It is because CHC protects ganetespib from being damaged by the environment and makes ganetespib release slowly. For free curcumin, although the dialysis bag have continued releasing curcumin for as long as 168 hours, the accumulated released curcumin is only about 8%. The slow release rate of free curcumin is owing to low aqueous solubility of curcumin Low aqueous solubility of curcumin also leads to low bioavailability of curcumin. The release rate of the curcumin in CHC/CCM is about the same as the free curcumin. The accumulated released curcumin of the curcumin in CHC/CCM is about 9%, slightly higher than that of the free curcumin. However, it can be seen in FIG. 3D: the difference therebetween increases with time.

The next data set has as its system SK-BR-3 cells. The experiment in a line: Cytotoxicity test (MTS, cell survival rate, IC50, combination index). The class given is cell-based. Particulars: Homo sapiens, 48 hours. The procedure:
Culture SK-BR-3 cells in a 24-well culture plate, and each well has 10^4 cells. After cells have attached to the culture plate for 20-24 hours, remove the culture liquid, and rinse the cells with PBS. Use Dulbecco's Modified Eagle Medium (DMEM) to dilute the drug compositions GAN, CCM, CHC/GAN, CHC/CCM, and CHC/GAN-CCM. Add the diluted drug compositions to the cells, and co-culture each drug composition and the cells for 48 hours. Remove DMEM, and flush the product of co-culture with PBS. Add MTS and DMEM (1:5 (v/v)) into each well of the cell culture plate, and culture them for 2-4 hours. Use a microplate reader to measure the absorptivity of the light having a wavelength of 490 nm, whereby to estimate the cell survival rates. The cell survival rate can be used to determine the half inhibitory concentration (IC50) and the combination index (CI) of two drugs. CHC/GAN and CHC/CCM can more effectively kill cells than the drugs in form of free molecules. […] Therefore, the drug composition carried by CHC nanoparticles can more effectively treat breast cancer in smaller dosage. Especially, while ganetespib is carried by CHC nanocarriers, the treating effect may be increased 60-70 times. […] The results also indicate that the effective concentration of the drug composition of the present invention may be lower than that of the conventional drug composition. […]

Data on 2 compounds can be found in patent US20220047559A1, “DRUG COMPOSITION FOR TREATING BREAST CANCER AND METHOD FOR MANUFACTURING THE SAME” (National Chiao Tung University, priority 2020, published 2022).

The structures appear in SMILES notation.

Regarding `COc1cc(/C=C/C(=O)CC(=O)/C=C/c2ccc(O)c(OC)c2)ccc1O` [CCM, curcumin], the accumulated released curcumin result in data set [1] (168 hours) is recorded as “about 8%”. Also, the IC50 with SK-BR-3 cells (curcumin) was found to be 12 µg/mL.

Take `CC(C)c1cc(-c2n[nH]c(=O)n2-c2ccc3c(ccn3C)c2)c(O)cc1O` [GAN, ganetespib]: in data set [1], the “time after which release of ganetespib stops” value turned out to be 8 h. In addition, in data set [1] (at the time release stops), the ganetespib released entry is listed as “about 73%”. Besides, the IC50 with SK-BR-3 cells (ganetespib) was found to be 0.00188 µg/mL.
